In US20260014278A1, “HYBRID PEPTIDE DENDRIMER SYSTEMS AND EXTRAHEPATIC DELIVERY” (NUNTIUS THERAPEUTICS LIMITED, priority 2022, published 2026):

Key:
[1] = Dynamic light scattering: hydrodynamic size and polydispersity index (PDI) of nanoparticles; format: physicochemical
Summary of the method: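 Hydrodynamic size measured by DLS (Stokes-Einstein), PDI from cumulants fit per ISO 13321/22412. Samples diluted 16× in 25 mM HEPES, water as dispersant, 25° C; PDI measured on dendrimer:nucleic acid 8:1 nanoparticles.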

mouse macrophages = test: eGFP mRNA transfection of mouse macrophages with or without mannose-dendrimer coat; format: cell-based
Description: J774.2 cells were subcultured in DMEM supplemented with 2 mM glutamax and 10% heat-inactivated FBS (complete media). Twice a week (at about 70-80% confluency; every 3-4 days), cells were scrapped and collected into Falcon tubes, and pelleted at 400 g for 5 minutes. The cells were resuspended in complete media, counted and seeded into 10 cm dishes at a density of 1.7-2.5E+4 cells/cm^2. For M2 polarisation, the cells were treated with complete media supplemented with 20 ng/ml recombinant murine IL-4 and 20 ng/ml recombinant murine IL-13 (activation media) over a 48 hr period. After 24 hrs in IL-4 and IL-13 containing medium, the cells scrapped and collected as described above. The cells were seeded into 24-well plates at a density of 1.2E+5 cells/well in 0.5mls/well complete media containing 20 ng/ml IL-4 and IL-13.
The media overlaying the polarised J774.2 cells was aspirated and exchanged with 480 ul/well activation media. 120 ul/well of each test condition (total volume was 600 ul/well) was added (test conditions were prepared in 25 mM HEPES solution). Control conditions were prepared consisting of neat 25 mM HEPES and an mRNA control. Between addition of each test condition the plate was shaken back and forth to ensure mixing. The plate was placed into the incubator overnight.
Staining and fixation for both human and mouse-derived macrophages was carried out as follows. After 24 hrs the media overlaying each test condition was transferred to corresponding 1.5 ml Eppendorf tubes (in order to conserve cells that may have died during transfection). Cells were then washed with 300 ul/well PBS which was transferred to the corresponding tubes. 500 ul/well 5 mM EDTA was added to each well and the plate(s) transferred to the 37° C. incubator for 5-10 minutes until the cells started to detach. Cells were then transferred from the plate to the corresponding 1.5 ml tubes. Cells were pelleted down at 300 g for 5 minutes and resuspended in 100 ul/sample fixable Live/Dead Aqua stain. ArC beads were stained with 3 ul neat Live/Dead Aqua for compensation. These cells were stained on ice for 30 minutes. Following this, the tubes were spun down at 300 g for 5 minutes. The supernatant was discarded, and the cells were resuspended in 500 ul/sample PBS. Negative ArC beads were added to the compensation control. GFP compensation beads were dispensed into separate tube as the GFP compensation control. The samples were spun down at 300 g for 5 minutes. Samples were then resuspended in 100 ul/sample of Reagent A from the Invitrogen Fix/Perm kit and left at room temperature for 15 minutes. The samples were spun down at 400 g for 5 minutes and the supernatant was disposed. The samples were once again washed with PBS and spun down at 300 g for 5 minutes. The cells were finally resuspended in 400 ul/sample FACS buffer (PBS+2 mM EDTA+0.5% w/v BSA) for flow analysis. Samples were stored in the fridge prior to flow analysis and run within 24 hrs of fixation.
12 μl of a nanoparticle formulation was aliquoted into a sterile 0.5 ml polypropylene tube. 4 μl of a 0.3 mg/ml, 0.6 mg/ml or 1.8 mg/ml solution of (Ac-EEEE)2[…][(S-S)-α-D-Thiomannose] (for a mRNA:coating mass ratio of 1:0.5, 1:1 or 1:3, respectively) was mixed by rapidly pipetting up and down 10-15 times, and allowed to incubate for 5 minutes.
Macrophages, and in particular M2-phenotype macrophages, are known to have enriched surface expression of the receptor CD206, the ligand for which is mannose.

[2] = GSCG1,2-RHL N:P=0.6:1, DOTMA:DOPE, coated with GSGGSGGSCG1-EEEE, with/without CpG (mRNA:CpG w/w 9:1)
[3] = GSCG1,2-RHL and DOTMA:DOPE nanoparticles, 150 ug/mL mRNA, 40× dilution in 25 mM HEPES buffer
[4] = mRNA, N:P 0.6:1, DOTMA:DOPE w/w 10:1, with or without 3 equivalents G1-EEEE with mannose coating

Hydrodynamic size [1, 2]: 174 nm | PDI [1, 2]: 0.17 | DLS measurement, Pdl [1, 3]: 0.13 | DLS measurement, size [1, 3]: 184 nm | PDI [1, 4]: 0.1776 | size [1, 4]: 149.5 nm
Substance: (RHL)4(KRHL)2KGSC-NH2 [GSCG1,2-RHL]
transfection efficiency with mannose-conjugated dendrimer coat versus uncoated (mouse macrophages; NP=0.6:1, lipid:mRNA w/w 10:1, coat 3:1 (3 eq) coating:mRNA, FIG. 7): further increase the transfection efficiency | transfection efficiency (mouse macrophages; NP=0.6:1, lipid:mRNA w/w 10:1, uncoated, FIG. 7): > 70% | transfection rate (mouse macrophages; NP=8:1, DOTMA/DOPE:mRNA w/w 10:1, uncoated, FIG. 6): ~60% | transfection efficiency (mouse macrophages; NP=8:1, lipid:mRNA w/w 2.5:1, coated with (Ac-EEEE)2KGSGGSGGSC[(S-S)-α-D-Thiomannose] at 1:1 (1 eq) coating:mRNA, FIG. 4): ~25% | transfection efficiency (mouse macrophages; NP=8:1, lipid:mRNA w/w 2.5:1, uncoated, FIG. 4): 2-3% | transfection efficiency (mouse macrophages; NP=8:1, lipid:mRNA w/w 5:1, dendrimer-mannose coat 0.5:1 (0.5 eq) coating:mRNA, FIG. 5): ~75% | transfection efficiency (mouse macrophages; NP=8:1, lipid:mRNA w/w 5:1, uncoated, lipid-only nanoparticles as comparator, FIG. 5): ~60%
